# Reference: patent US20170107482A1, “ANIMAL CELL REGENERATION SPEED CONTROLLING METHOD AND ANIMAL CELL REGENERATION SPEED CONTROLLER” (TOYOTA BOSHOKU KABUSHIKI KAISHA, priority 2015, published 2017)
# Tested on: Planarians (Dugesia japonica)
# Assay: Animal cell regeneration experiment (ii): head (eye) regeneration of cut planarians after immersion in Azakenpaullone
# Format: in vivo
# Details: 0.5 μM, 24 h immersion; for individuals died and disappeared before regeneration: among the total nine individuals
# Experimental: Hereinafter, the present invention will be specifically described using Examples. In the following Examples 1 and 2, regeneration experiment was conducted using Planarians (Dugesia japonica) as one kind of flatworm.
# Thereafter, the planarians belonging to Groups A and B were respectively placed in petri dishes, so that the amount of water per planarian was 2.5 mL, in a thermostat bath set to a temperature of 13° C. The planarians were grown for 14 days ([…]) under a condition and in an environment such that water was changed every three days. The respective regeneration states of their heads in this period were observed over time with an optical microscope every 24 hours after cutting to evaluate the degree of regeneration after 14 days had elapsed based on the following three references (see Teresa Adel et al., Dev Genes Evol (2008) 218:89-103, as for the references for the degree of regeneration). The planarians ranked as “regeneration degree 2” or “regeneration degree 3” were determined to “have been regenerated,” and those ranked as “regeneration degree 1” were determined to “be unregenerated.” The number of planarians determined to “have been regenerated” was counted over time, and the result thereof is indicated in Table 1.
# “Regeneration degree 1”: Eyes being developed cannot be identified.
# “Regeneration degree 2”: Eyes being developed can be identified.
# “Regeneration degree 3”: Eyes can be identified.
# Firstly, planarians having an equivalent size were selected, and divided into Group C (n=9) and Group D (n=9). For the planarians belonging to Group C, the living bodies were cut near the center at a timing in the same time zone as that for Group A in Example 1 (namely, immediately after the RGA turned downward from the maximum value immediately before) (see FIG. 2).
# For the planarians (n=9) belonging to Group D, the living bodies were cut near the center at a timing in the same time zone as that for Group B in Example 1 (namely, immediately after the RGA turned upward from the minimum value immediately before) (see FIG. 2).
# Thereafter, the planarians belonging to Groups C and D were respectively immersed for 24 hours in a solution of Azakenpaullone that is a drug suppressing normal differentiation at a concentration of 0.5 μM, then placed in petri dishes, so that the amount of water per planarian was 2.5 mL, in a thermostat bath set to a temperature of 13° C., and were grown for 15 days ([…]) under a condition and in an environment such that water was changed every three days. The respective regeneration states of their heads were observed over time with an optical microscope every 24 hours after cutting to evaluate the degree of regeneration after 15 days had elapsed in the same manner as in Example 1. At this time, the planarians were determined as to whether they “had been regenerated” or “were unregenerated” in the same manner as in Example 1. The number of planarians determined to “have been regenerated” was counted over time, and the result thereof is indicated in Table 2.
# The treating method using Azakenpaullone was referred to a description of Teresa Adel et al., Dev Genes Evol 218(2008) 89-103.
smiles,measurement,setting,value
O=C1Cc2c([nH]c3ccc(Br)cc23)-c2ncccc2N1 [Azakenpaullone],Number of planarians determined to have been regenerated (cumulative),"Group C (n=9), cut immediately after RGA turned downward from maximum, 0 h after cutting",0
same,Number of planarians determined to have been regenerated (cumulative),"Group C (n=9), cut immediately after RGA turned downward from maximum, 24 h after cutting",0
same,Number of planarians determined to have been regenerated (cumulative),"Group C (n=9), cut immediately after RGA turned downward from maximum, 48 h after cutting",0
same,Number of planarians determined to have been regenerated (cumulative),"Group C (n=9), cut immediately after RGA turned downward from maximum, 72 h after cutting",0
same,Number of planarians determined to have been regenerated (cumulative),"Group C (n=9), cut immediately after RGA turned downward from maximum, 96 h after cutting",0
same,Number of planarians determined to have been regenerated (cumulative),"Group C (n=9), cut immediately after RGA turned downward from maximum, 120 h after cutting",0
same,Number of planarians determined to have been regenerated (cumulative),"Group C (n=9), cut immediately after RGA turned downward from maximum, 144 h after cutting",0
same,Number of planarians determined to have been regenerated (cumulative),"Group C (n=9), cut immediately after RGA turned downward from maximum, 168 h after cutting",0
same,Number of planarians determined to have been regenerated (cumulative),"Group C (n=9), cut immediately after RGA turned downward from maximum, 192 h after cutting",0
same,Number of planarians determined to have been regenerated (cumulative),"Group C (n=9), cut immediately after RGA turned downward from maximum, 216 h after cutting",1
same,Number of planarians determined to have been regenerated (cumulative),"Group C (n=9), cut immediately after RGA turned downward from maximum, 240 h after cutting",2
same,Number of planarians determined to have been regenerated (cumulative),"Group C (n=9), cut immediately after RGA turned downward from maximum, 264 h after cutting",2
same,Number of planarians determined to have been regenerated (cumulative),"Group C (n=9), cut immediately after RGA turned downward from maximum, 288 h after cutting",3
same,Number of planarians determined to have been regenerated (cumulative),"Group C (n=9), cut immediately after RGA turned downward from maximum, 312 h after cutting",4
same,Number of planarians determined to have been regenerated (cumulative),"Group C (n=9), cut immediately after RGA turned downward from maximum, 336 h after cutting",4
same,Number of planarians determined to have been regenerated (cumulative),"Group C (n=9), cut immediately after RGA turned downward from maximum, 360 h after cutting",5
same,individuals died and disappeared before regeneration,"Group C, cut immediately after RGA turned downward",four
same,Number of planarians determined to have been regenerated (cumulative),"Group D (n=9), cut immediately after RGA turned upward from minimum, 0 h after cutting",0
same,Number of planarians determined to have been regenerated (cumulative),"Group D (n=9), cut immediately after RGA turned upward from minimum, 24 h after cutting",0
same,Number of planarians determined to have been regenerated (cumulative),"Group D (n=9), cut immediately after RGA turned upward from minimum, 48 h after cutting",0
same,Number of planarians determined to have been regenerated (cumulative),"Group D (n=9), cut immediately after RGA turned upward from minimum, 72 h after cutting",0
same,Number of planarians determined to have been regenerated (cumulative),"Group D (n=9), cut immediately after RGA turned upward from minimum, 96 h after cutting",0
same,Number of planarians determined to have been regenerated (cumulative),"Group D (n=9), cut immediately after RGA turned upward from minimum, 120 h after cutting",0
same,Number of planarians determined to have been regenerated (cumulative),"Group D (n=9), cut immediately after RGA turned upward from minimum, 144 h after cutting",0
same,Number of planarians determined to have been regenerated (cumulative),"Group D (n=9), cut immediately after RGA turned upward from minimum, 168 h after cutting",0
same,Number of planarians determined to have been regenerated (cumulative),"Group D (n=9), cut immediately after RGA turned upward from minimum, 192 h after cutting",0
same,Number of planarians determined to have been regenerated (cumulative),"Group D (n=9), cut immediately after RGA turned upward from minimum, 216 h after cutting",0
same,Number of planarians determined to have been regenerated (cumulative),"Group D (n=9), cut immediately after RGA turned upward from minimum, 240 h after cutting",6
same,Number of planarians determined to have been regenerated (cumulative),"Group D (n=9), cut immediately after RGA turned upward from minimum, 264 h after cutting",6
same,Number of planarians determined to have been regenerated (cumulative),"Group D (n=9), cut immediately after RGA turned upward from minimum, 288 h after cutting",6
same,Number of planarians determined to have been regenerated (cumulative),"Group D (n=9), cut immediately after RGA turned upward from minimum, 312 h after cutting",6
same,Number of planarians determined to have been regenerated (cumulative),"Group D (n=9), cut immediately after RGA turned upward from minimum, 336 h after cutting",6
same,Number of planarians determined to have been regenerated (cumulative),"Group D (n=9), cut immediately after RGA turned upward from minimum, 360 h after cutting",6
same,individuals died and disappeared before regeneration,"Group D, cut immediately after RGA turned upward",three
